Assay results reported in patent US20080125496A1, “ANTIMICROBIAL FLAVOR AND ORAL CARE COMPOSITION CONTAINING THE SAME” (TAKASAGO INTERNATIONAL CORPORATION, priority 2001, published 2008).
≈ marks a conversion by molar mass, not a printed value. Where two headings read alike, the source gives them in different places.

Columns and labels:
Assay type in all cases: cell-based
[1] = tested on: Porphyromonas gingivalis JCM 8525; test: MIC by agar plate dilution method, Pg-1; conditions: for MIC: Porphyromonas gingivalis, read-out: MIC Pg-1 (paradentosis-related bacteria; head Fg-1 in Tables 2 and 3)
Procedure: (§1) The minimum inhibitory activities of the antimicrobial flavors of the invention on anaerobic oral bacteria were measured by an agar plate dilution method.
(§2) All the test strains were obtained from Riken (The Institute of Physical and Chemical Research). The names and abbreviations of the strains are shown in Table 1 below (The abbreviations are used in the following description).
(§3) Each test microorganism kept frozen (−80° C.) in glycerol at a concentration of 25% was thawed. A 100 μl portion of the suspension was inoculated into 10 ml of a liquid medium. A Gifu university anaerobic medium (GAM) (Nissui Pharmaceutical Co., Ltd) having added thereto Hemin (Tokyo Kasei) and Menadione (Sigma) was used for Su-1 and Fn-1. Schaedler Broth (BBL) having added thereto Hemin and Menadione was used for the other strains. The culture was anaerobically incubated at 37° C. for 72 hours by using BBL Gas Pack Anaerobic System. After the cultivation, the microbial cell suspension of Su-1 was 10-fold diluted to prepare an inoculum. The cultures of Fn-1 and Pg-1 were used as such as an inoculum. The cultures of Pt-1, Aa-1, and Av-1 were subjected to centrifugation, and the separated microbial cells were suspended in 2 ml of sterilized physiological saline to prepare the respective inoculums.
(§4) An agar medium prepared by adding 2% agar (Difco), Hemin, and Menadione to Trypticase Soy Broth (BBL) was used. A test sample (antimicrobial flavor) was dissolved in ethanol to prepare 2-fold serial dilutions. To 10 ml of the agar medium was added 100 μl of each dilution and stirred well. The agar medium was transferred to a petri dish (diameter: 9 cm) and solidified at room temperature. The solidified agar medium was inoculated with 5 μl of the inoculum by means of a multipoint inoculator (Microplanter MIT-P27, supplied by Sakuma Seisakusho), followed by culturing at 37° C. for 72 hours under anaerobic conditions. The growth of the test microorganism was compared with a blank petri dish (the agar medium to which 100 μl of ethanol had been added). The lowest sample concentration that inhibited growth was taken as MIC (ppm).
(§5) Antimicrobial activities (MIC; ppm) of the aromahygiene base (AHB) prepared in (1) and the antimicrobial flavor compositions prepared in (2) (Examples 2-1 to 2-3) and Comparative Examples 2-1 to 2-3 were measured in the same manner as in Example 1 (2).

[2] = tested on: Streptococcus mutans JCM 5175; test: MIC by agar plate dilution method, Su-1; conditions: for MIC: Streptococcus mutans, read-out: MIC Su-1 (caries-related bacteria)
Procedure: as §1, §2, §3, §4, §5

[3] = tested on: Fusobacterium nucleatum JCM 6328; test: MIC by agar plate dilution method, Fn-1; conditions: for MIC: Fusobacterium nucleatum, read-out: MIC Fn-1 (paradentosis-related bacteria)
Procedure: as §1, §2, §3, §4, §5

[4] = tested on: Actinomyces naeslundii JCM 8350; test: MIC by agar plate dilution method, Aa-1; conditions: for MIC: Actinomyces naeslundii, read-out: MIC Aa-1 (caries-related bacteria)
Procedure: as §1, §2, §3, §4, §5

[5] = tested on: Actinomyces viscosus JCM 8352; test: MIC by agar plate dilution method, Av-1; conditions: for MIC: Actinomyces viscosus, read-out: MIC Av-1 (caries-related bacteria)
Procedure: as §1, §2, §3, §4, §5

[6] = tested on: Prevotella intermedia JCM 6322; test: MIC by agar plate dilution method, Pt-1; conditions: for MIC: Prevotella intermedia, read-out: MIC Pt-1 (paradentosis-related bacteria)
Procedure: as §1, §2, §3, §4, §5

[7] = JCM8525, agar medium, 37° C., 72 hours, anaerobic conditions
[8] = JCM5175, agar medium, 37° C., 72 hours, anaerobic conditions
[9] = JCM6328, agar medium, 37° C., 72 hours, anaerobic conditions
[10] = JCM8350, agar medium, 37° C., 72 hours, anaerobic conditions
[11] = JCM8352, agar medium, 37° C., 72 hours, anaerobic conditions
[12] = agar medium, 37° C., 72 hours, anaerobic conditions
[13] = JCM6322, agar medium, 37° C., 72 hours, anaerobic conditions

Row | SMILES | MIC [2, 8] | MIC [3, 9] | MIC [4, 10] | MIC [5, 11] | MIC Pg-1 (paradentosis-related bacteria; head Fg-1 in Tables 2 and 3) [1, 12] | MIC Su-1 (caries-related bacteria) [2, 12] | MIC Fn-1 (paradentosis-related bacteria) [3, 12] | MIC Pt-1 (paradentosis-related bacteria) [6, 12] | MIC Aa-1 (caries-related bacteria) [4, 12] | MIC Av-1 (caries-related bacteria) [5, 12] | further results
1 | C=C(C)[C@@H]1CC=C(CO)CC1 [Perilla alcohol] | 500 µg/mL (≈ 3280 µM) | 500 µg/mL (≈ 3280 µM) | 250 µg/mL (≈ 1640 µM) | 500 µg/mL (≈ 3280 µM) | – | – | – | – | – | – | MIC [1, 7]: 125 µg/mL (≈ 821 µM)
2 | CC1(C)CCC[C@]2(C)[C@H]3CCO[C@]3(C)CC[C@@H]12 [Ambroxan] | – | – | – | – | 31.3 ppm | >1000 ppm | >1000 ppm | 31.3 ppm | >1000 ppm | >1000 ppm | –
3 | O=C1CCCCCCCCCCCCCCO1 [Cyclopentadecanolide] | – | – | – | – | <62.5 ppm | >1000 ppm | >1000 ppm | <62.5 ppm | >1000 ppm | >1000 ppm | –
4 | CC(C)=CCC/C(C)=C/CCC(C)CCO (stereo not shown) [Dihydrofarnesol] | – | – | – | – | 7.8 ppm | 31.3 ppm | 31.3 ppm | 7.8 ppm | 31.3 ppm | 62.5 ppm | –
5 | CCCCCCCCC(C)C=O (stereo not shown) [2-Methyl decanal] | 500 µg/mL (≈ 2940 µM) | 500 µg/mL (≈ 2940 µM) | 250 µg/mL (≈ 1470 µM) | 500 µg/mL (≈ 2940 µM) | – | – | – | – | – | – | MIC [1, 7]: 62.5 µg/mL (≈ 367 µM); MIC [6, 13]: 125 µg/mL (≈ 734 µM)
6 | CCCCCCCCCC(C)C=O (stereo not shown) [2-Methyl undecanal] | 250 µg/mL (≈ 1360 µM) | 125 µg/mL (≈ 678 µM) | 125 µg/mL (≈ 678 µM) | 125 µg/mL (≈ 678 µM) | – | – | – | – | – | – | MIC [1, 7]: 62.5 µg/mL (≈ 339 µM); MIC [6, 13]: 62.5 µg/mL (≈ 339 µM)
7 | CC1C(C)(C)C2=C(C(=O)CCC2)C1(C)C (stereo not shown) [Cashmerane] | – | – | – | – | 250 ppm | >1000 ppm | >1000 ppm | 250 ppm | 1000 ppm | 1000 ppm | –
8 | CCC(O)/C(C)=C/C1(C)CC2C=CC1C2 (stereo not shown) [Methyl sandeflor] | – | – | – | – | 62.5 ppm | 500 ppm | 250 ppm | 62.5 ppm | 250 ppm | 125 ppm | –
9 | O=CCc1ccccc1 [Phenylacetaldehyde] | > 1000 µg/mL | 1000 µg/mL (≈ 8320 µM) | 500 µg/mL (≈ 4160 µM) | 250 µg/mL (≈ 2080 µM) | – | – | – | – | – | – | MIC ([1]; JCM8525, 72 h): 15.6 µg/mL (≈ 130 µM); MIC [6, 13]: 15.6 µg/mL (≈ 130 µM)
10 | CC1=CCC(CCC(C)CO)C1(C)C (stereo not shown) [Brahmanol] | – | – | – | – | 31.3 ppm | 250 ppm | 250 ppm | 31.3 ppm | 125 ppm | 125 ppm | –
11 | CC(=O)O[C@]1(C)CC[C@@]23C[C@@H]1C(C)(C)[C@@H]2CC[C@H]3C [Cedryl acetate] | – | – | – | – | – | – | – | – | – | – | MIC ([1]; JCM8525, 72 h): 31.3 µg/mL; MIC ([2]; JCM5175, 72 h): > 1000 µg/mL; MIC ([3]; JCM6328, 72 h): > 1000 µg/mL; MIC ([6]; JCM6322, 72 h): 62.5 µg/mL; MIC ([4]; JCM8350, 72 h): > 1000 µg/mL; MIC ([5]; JCM8352, 72 h): > 1000 µg/mL
12 | O=C1CCCCCCCCCCC(=O)OCCO1 [Ethylenedodecanedioate] | – | – | – | – | 31.3 ppm | >1000 ppm | >1000 ppm | >1000 ppm | >1000 ppm | 250 ppm | –
13 | COC(/C=C/c1ccccc1)OC [Cinnamic aldehyde dimethyl acetal] | – | – | – | – | <15.6 ppm | 250 ppm | 500 ppm | 62.5 ppm | 125 ppm | 250 ppm | –
14 | CC/C(=C\CC1CC=C(C)C1(C)C)CO (stereo not shown) [Bacdanol] | – | – | – | – | 31.3 ppm | 125 ppm | 62.5 ppm | – | 125 ppm | 62.5 ppm | –
15 | C=C(C)[C@@H]1CCC2=CC(=O)C[C@@H](C)[C@]2(C)C1 [Nootkatone] | 1000 µg/mL (≈ 4580 µM) | 500 µg/mL (≈ 2290 µM) | 62.5 µg/mL (≈ 286 µM) | 62.5 µg/mL (≈ 286 µM) | – | – | – | – | – | – | MIC [1, 7]: 7.8 µg/mL (≈ 35.7 µM)
16 | CC(C=O)Cc1ccc2c(c1)OCO2 (stereo not shown) [Helional] | – | – | – | – | 125 ppm | 1000 ppm | 1000 ppm | 1000 ppm | 250 ppm | 500 ppm | –
17 | CC(=O)c1cc2c(cc1C)C(C)(C)C(C)CC2(C)C (stereo not shown) [Tonalid] | – | – | – | – | – | – | – | – | – | – | MIC ([1]; JCM8525, 72 h): 15.6 µg/mL (≈ 60.4 µM); MIC ([2]; JCM5175, 72 h): > 1000 µg/mL; MIC ([3]; JCM6328, 72 h): > 1000 µg/mL; MIC ([6]; JCM6322, 72 h): 62.5 µg/mL (≈ 242 µM); MIC ([4]; JCM8350, 72 h): > 1000 µg/mL; MIC ([5]; JCM8352, 72 h): > 1000 µg/mL
18 | CC(=O)C1=C(C)[C@@H]2C[C@@]3(C1)[C@H](C)CC[C@H]3C2(C)C [Acetyl cedrene] | – | – | – | – | 15.6 ppm | 250 ppm | 500 ppm | – | 31.3 ppm | 31.3 ppm | –
19 | CCCCCCCCCCC=O [Undecanal] | 1000 µg/mL (≈ 5870 µM) | 500 µg/mL (≈ 2940 µM) | 500 µg/mL (≈ 2940 µM) | 500 µg/mL (≈ 2940 µM) | – | – | – | – | – | – | MIC [1, 7]: 125 µg/mL (≈ 734 µM)
20 | CC1CCC(C(C)C)C(OCC(O)CO)C1 (stereo not shown) [3-Menthoxypropane-1,2-diol] | 1000 µg/mL (≈ 4340 µM) | 1000 µg/mL (≈ 4340 µM) | 500 µg/mL (≈ 2170 µM) | 62.5 µg/mL (≈ 271 µM) | – | – | – | – | – | – | MIC [1, 7]: 250 µg/mL (≈ 1090 µM)
21 | CCCCCCCC/C=C/C=O [Trans-2-undecenal] | 250 µg/mL (≈ 1490 µM) | 1000 µg/mL (≈ 5940 µM) | 125 µg/mL (≈ 743 µM) | 125 µg/mL (≈ 743 µM) | – | – | – | – | – | – | –
